Data published in patent US20060179499A1, “Non-human animal models for diabetic complications and their uses” (Biomedical Research Models, Inc., priority 2004, published 2006).

Tests used:
BBZDR/Wor rats [1] = experiment: Environmental induction of diabetes in BBZDR/Wor rats (during initial development of the strain); type: in vivo, rat
Procedure: (§1) During the initial development of the BBZDR/Wor strain, we performed several experiments to determine whether BBZDR/Wor animals are susceptible to other environmental triggers of diabetes. […] Lean and obese BBZDR/Wor rats were treated with either the TLR3 ligand, poly I:C, or poly I:C and KRV and the incidence of diabetes was determined. […] In contrast, 35-64% of animals treated with poly I:C+KRV became diabetic. We consistently observed a higher incidence of diabetes among lean BBZDR/Wor animals as compared to obese rats. More experiments will need to be performed to determine whether these differences are statistically significant. We recently revisited the poly I:C experiments in the now, fully-inbred (>40 generations) BBZDR/Wor rat line. […] In contrast to our previous results, we observed that 40% of the lean animals and 50% of the obese females developed hyperglycemia.

BBDR/Wor rats = settings: cited from earlier work
[2] = tested on: dorsal root explants and cultured neurons; settings: application to dorsal root explants and cultured neurons; cited from earlier work
BBZDR/Wor rats [3] = experiment: Preliminary poly I:C experiment in fully-inbred BBZDR/Wor rat line, onset of diabetes; type: in vivo; settings: fully-inbred (>40 generations) line, 5 μg/gm body weight, 3× a week
Procedure: as §1

polyinosine:polycytidylic acid [Poly I:C]
% Diabetic With Treatment (BBZDR/Wor rats [1]; Lean BBZDR/Wor rats): 0% | incidence of diabetes (BBZDR/Wor rats [1]; Lean and obese BBZDR/Wor rats together): no animals treated with poly I:C alone developed diabetes | % Diabetic With Treatment (BBZDR/Wor rats [1]; Obese BBZDR/Wor rats): 0% | induction of hyperglycemia (BBDR/Wor rats; low doses, poly I:C alone): do not induce hyperglycemia | incidence of diabetes (BBDR/Wor rats; poly I:C given just prior to KRV infection): ~100% | effect on axonal outgrowth [2]: inhibits axonal outgrowth | animals that developed hyperglycemia (BBZDR/Wor rats [3]; lean female animals): 40% | animals that developed hyperglycemia (BBZDR/Wor rats [3]; obese females): 50%
